Assay results from US20250381157A1, “ANTIMICROBIAL COMPOUNDS” (priority 2022, published 2025).

Key:
recombinant human HDAC1 = target: T1, recombinant human HDAC1 (Homo sapiens, UniProt Q13547); experiment: HDAC1 in-vitro enzymatic assay; assay type: biochemical
T1 construct: purchased BPS 50051
Method: (§1) All of the compounds were dissolved in DMSO. A series of dilutions of the compounds were prepared with 10% DMSO in HDAC assay buffer and 5 μl of the dilution was added to a 50 μl reaction so that the final concentration of DMSO was 1% in all of reactions. The compounds were pre-incubated in duplicate at RT for 30 minutes in a mixture containing HDAC assay buffer, 5 μg BSA, HDAC enzyme and a test compound. After 30 minutes, the enzymatic reactions were initiated by the addition of HDAC substrate to a final concentration of 20 μM or 2 μM. The enzymatic reaction proceeded for 30 minutes at 37° C. After enzymatic reactions, 50 μl of 2×HDAC Developer was added to each well for the HDAC enzymes and the plate was incubated at room temperature for an additional 15 minutes. Fluorescence intensity was measured at an excitation of 360 nm and an emission of 460 nm using a Tecan Infinite M1000 microplate reader.
(§2) HDAC activity assays were performed in duplicates at each concentration. The fluorescent intensity data were analyzed using the computer software, Graphpad Prism. […] The percent activity in the presence of each compound was calculated according to the following equation: % activity=(F−Fb)/(Ft−Fb), where F=the fluorescent intensity in the presence of the compound. […] The IC50 value was determined by the concentration causing a half-maximal percent activity.

recombinant human HDAC2 = target: T2, recombinant human HDAC2 (Homo sapiens, UniProt Q92769); experiment: biochemical
T2 construct: purchased BPS 50002
T2 sequence (Q92769 whole entry): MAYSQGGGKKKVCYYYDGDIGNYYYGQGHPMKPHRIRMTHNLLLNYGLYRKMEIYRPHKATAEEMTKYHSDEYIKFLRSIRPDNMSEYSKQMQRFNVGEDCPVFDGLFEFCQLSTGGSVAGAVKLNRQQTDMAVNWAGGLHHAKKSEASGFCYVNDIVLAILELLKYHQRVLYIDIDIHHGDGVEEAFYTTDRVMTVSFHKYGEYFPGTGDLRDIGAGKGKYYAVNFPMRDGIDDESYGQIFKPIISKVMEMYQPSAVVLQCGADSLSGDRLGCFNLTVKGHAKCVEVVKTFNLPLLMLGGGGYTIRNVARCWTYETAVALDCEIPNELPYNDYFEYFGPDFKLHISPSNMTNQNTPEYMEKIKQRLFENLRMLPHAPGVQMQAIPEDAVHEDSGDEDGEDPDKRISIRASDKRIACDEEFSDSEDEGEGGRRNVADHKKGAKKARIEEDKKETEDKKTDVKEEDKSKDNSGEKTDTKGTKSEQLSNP
Method: as §1, §2

recombinant human HDAC9 = target: T3, recombinant human HDAC9 (Homo sapiens, UniProt Q9UKV0); experiment: HDAC9 in-vitro enzymatic assay; assay type: biochemical
T3 construct: purchased BPS 50009
T3 sequence (Q9UKV0 whole entry): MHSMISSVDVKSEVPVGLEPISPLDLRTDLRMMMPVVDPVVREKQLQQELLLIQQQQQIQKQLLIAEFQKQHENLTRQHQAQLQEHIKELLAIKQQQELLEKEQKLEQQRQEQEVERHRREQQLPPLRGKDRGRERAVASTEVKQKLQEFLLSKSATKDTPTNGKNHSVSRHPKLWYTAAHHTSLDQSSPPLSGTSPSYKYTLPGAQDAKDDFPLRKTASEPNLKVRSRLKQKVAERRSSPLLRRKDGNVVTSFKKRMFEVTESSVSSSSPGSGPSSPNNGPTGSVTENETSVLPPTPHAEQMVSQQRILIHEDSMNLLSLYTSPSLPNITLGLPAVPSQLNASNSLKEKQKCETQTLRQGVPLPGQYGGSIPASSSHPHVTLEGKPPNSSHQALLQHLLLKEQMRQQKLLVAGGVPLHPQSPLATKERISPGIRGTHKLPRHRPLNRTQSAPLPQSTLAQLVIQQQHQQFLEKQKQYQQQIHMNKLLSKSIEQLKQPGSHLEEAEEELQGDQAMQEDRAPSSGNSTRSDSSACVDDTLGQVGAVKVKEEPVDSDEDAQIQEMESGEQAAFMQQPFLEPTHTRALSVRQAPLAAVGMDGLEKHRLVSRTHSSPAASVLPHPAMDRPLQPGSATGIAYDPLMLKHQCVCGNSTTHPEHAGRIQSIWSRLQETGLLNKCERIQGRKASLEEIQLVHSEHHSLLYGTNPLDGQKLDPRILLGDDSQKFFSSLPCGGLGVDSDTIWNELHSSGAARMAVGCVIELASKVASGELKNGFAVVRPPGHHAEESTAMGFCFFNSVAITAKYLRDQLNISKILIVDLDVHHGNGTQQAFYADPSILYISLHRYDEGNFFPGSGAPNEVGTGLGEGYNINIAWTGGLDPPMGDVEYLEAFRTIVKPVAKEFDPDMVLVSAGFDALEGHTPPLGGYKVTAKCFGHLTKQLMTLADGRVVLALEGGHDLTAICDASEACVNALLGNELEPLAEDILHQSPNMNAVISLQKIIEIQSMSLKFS
Method: as §1, §2

[1] = Mouse ileum C-max after single PO dose; assay type: in vivo
recombinant human HDAC7 = target: T4, recombinant human HDAC7 (Homo sapiens, UniProt Q8WUI4); experiment: HDAC7 in-vitro enzymatic assay; assay type: biochemical
T4 construct: purchased BPS 50007
T4 sequence (Q8WUI4 1-952): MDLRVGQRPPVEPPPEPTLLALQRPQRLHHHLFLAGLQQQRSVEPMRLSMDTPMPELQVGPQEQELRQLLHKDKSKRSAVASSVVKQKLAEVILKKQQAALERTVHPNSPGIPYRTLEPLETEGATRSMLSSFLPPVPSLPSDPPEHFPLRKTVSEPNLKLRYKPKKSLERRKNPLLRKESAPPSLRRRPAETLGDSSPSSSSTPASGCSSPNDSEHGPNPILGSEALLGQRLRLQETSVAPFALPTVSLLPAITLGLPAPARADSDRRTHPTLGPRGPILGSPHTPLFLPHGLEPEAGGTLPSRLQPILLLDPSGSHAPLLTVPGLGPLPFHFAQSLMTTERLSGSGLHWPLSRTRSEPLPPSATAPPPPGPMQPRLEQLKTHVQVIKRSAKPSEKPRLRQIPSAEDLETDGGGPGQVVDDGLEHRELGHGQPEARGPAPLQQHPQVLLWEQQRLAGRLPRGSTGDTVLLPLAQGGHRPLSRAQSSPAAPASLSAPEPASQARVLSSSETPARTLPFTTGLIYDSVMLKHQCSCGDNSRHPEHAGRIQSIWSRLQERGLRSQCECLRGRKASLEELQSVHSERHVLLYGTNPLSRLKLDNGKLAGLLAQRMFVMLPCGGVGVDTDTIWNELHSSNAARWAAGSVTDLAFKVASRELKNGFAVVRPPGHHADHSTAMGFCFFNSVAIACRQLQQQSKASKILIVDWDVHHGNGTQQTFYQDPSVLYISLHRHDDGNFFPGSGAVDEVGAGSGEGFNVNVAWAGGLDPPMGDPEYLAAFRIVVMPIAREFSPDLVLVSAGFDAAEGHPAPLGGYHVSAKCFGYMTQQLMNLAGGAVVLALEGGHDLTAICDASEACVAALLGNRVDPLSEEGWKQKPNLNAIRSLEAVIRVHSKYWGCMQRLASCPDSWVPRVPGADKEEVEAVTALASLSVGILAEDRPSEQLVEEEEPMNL
Method: as §1, §2

[2] = Dose escalation toxicity and MTD in mouse; conditions: in vivo
Plasma stability Mouse = assay type: in vitro ADME

T1 sequence (Q13547 whole entry): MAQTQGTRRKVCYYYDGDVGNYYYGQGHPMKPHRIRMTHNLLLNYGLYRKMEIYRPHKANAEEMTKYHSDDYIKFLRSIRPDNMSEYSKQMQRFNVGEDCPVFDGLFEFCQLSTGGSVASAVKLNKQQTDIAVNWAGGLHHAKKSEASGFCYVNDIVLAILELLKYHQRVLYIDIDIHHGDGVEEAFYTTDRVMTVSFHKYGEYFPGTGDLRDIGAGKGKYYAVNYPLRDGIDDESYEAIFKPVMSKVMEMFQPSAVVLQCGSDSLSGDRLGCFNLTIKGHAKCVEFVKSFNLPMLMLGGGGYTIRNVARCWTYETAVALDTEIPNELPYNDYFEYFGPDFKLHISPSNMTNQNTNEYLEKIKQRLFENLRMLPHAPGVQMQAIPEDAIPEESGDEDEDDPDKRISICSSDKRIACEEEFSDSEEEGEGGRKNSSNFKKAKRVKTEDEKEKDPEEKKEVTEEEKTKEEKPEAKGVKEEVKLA

Question: Which IC50 (recombinant human HDAC1) does the source give for `C#CCOCC(=O)Nc1ccc(C(=O)Nc2ccccc2N)cc1` [Compound 1, N-(2-aminophenyl)-4-{2-[(prop-2-yn-1-yl)oxy]acetamido}benzamide] here?
Answer: < 1000 nM

Question: And the inhibition at 1 µM (recombinant human HDAC1; @ 1 μM, read-out: Inhib. HDAC1)?
Answer: 75%

Question: And the IC50 (recombinant human HDAC2)?
Answer: ~1200 nM

Question: And the IC50 (recombinant human HDAC9)?
Answer: > 200000 nM

Question: And the “Inhib. HDAC9” value (recombinant human HDAC9; @ 200 μM)?
Answer: No Inhib. @ 200 μM

Question: And the “PO single 5 mg/kg mouse - Ileum C-max” value ([1]; PO single 5 mg/kg)?
Answer: 0.9 µM

Question: What about the “PO single 15 mg/kg mouse - Ileum C-max” value ([1]; PO single 15 mg/kg) of the same molecule?
Answer: 2.0 µM

Question: And the “PO single 50 mg/kg mouse - Ileum C-max” value ([1]; PO single 50 mg/kg)?
Answer: 7.1 µM

Question: And the IC50 (recombinant human HDAC7)?
Answer: > 200000 nM

Question: What about the “Inhib. HDAC7” value (recombinant human HDAC7; @ 200 μM) of the same molecule?
Answer: No Inhib. @ 200 μM

Question: What about the “Dose Esc. Tox mouse iv” value ([2]; iv) of the same molecule?
Answer: 100 mg/kg

Question: And the “Dose Esc. Tox mouse PO” value ([2]; po)?
Answer: 50 mg/kg

Question: What about the “Plasma stability Mouse” value (Plasma stability Mouse) of the same molecule?
Answer: Low
